Key:
Experiment in all cases: Color, fluorescence and growth of colonies on Columbia medium with nitroreductase substrate
Type in all cases: cell-based
Settings in all cases: 40 mg substrate in 400 ml Columbia medium, 24 hours at 37° C.
[1] = system: Bacillus subtilis NCTC 9 372; design: key to Growth: NG: no growth; 0.5: low growth; 1: moderate growth; 2: good growth; key to Fluo.: fluorescence of the colonies / Col.: color of the colonies: —: no color/fluorescence
Procedure: (§1) 40 mg of each of the substrates were dissolved in 4 ml of dimethylsulfoxide and added to 400 ml of previously autoclaved Columbia medium. The 5 media were distributed in Petri dishes 90 mm in diameter at the rate of 20 ml per dish. Seventeen strains of microorganisms obtained from collections and belonging to various species of bacteria and yeasts are inoculated as spots of about 10 000 colony forming units. The media are incubated for 24 hours at 37° C. and then the colonies formed are examined visually and under a UV lamp at 365 nm.

[2] = system: Candida albicans ATCC 90 028; design: key to Growth: NG: no growth; 0.5: low growth; 1: moderate growth; 2: good growth; key to Fluo.: fluorescence of the colonies / Col.: color of the colonies: —: no color/fluorescence
Procedure: as §1

[3] = system: Candida glabrata NCPF 3 943; design: key to Growth: NG: no growth; 0.5: low growth; 1: moderate growth; 2: good growth; key to Fluo.: fluorescence of the colonies / Col.: color of the colonies: —: no color/fluorescence
Procedure: as §1

[4] = system: Enterococcus faecalis NCTC 775; design: key to Growth: NG: no growth; 0.5: low growth; 1: moderate growth; 2: good growth; key to Fluo.: fluorescence of the colonies / Col.: color of the colonies: —: no color/fluorescence
Procedure: as §1

[5] = system: Enterococcus faecium NCTC 7 171; design: key to Growth: NG: no growth; 0.5: low growth; 1: moderate growth; 2: good growth; key to Fluo.: fluorescence of the colonies / Col.: color of the colonies: —: no color/fluorescence
Procedure: as §1

[6] = system: Listeria monocytogenes NCTC 11 994; design: key to Growth: NG: no growth; 0.5: low growth; 1: moderate growth; 2: good growth; key to Fluo.: fluorescence of the colonies / Col.: color of the colonies: —: no color/fluorescence
Procedure: as §1

[7] = system: Providencia rettgeri NCTC 7 475; design: key to Growth: NG: no growth; 0.5: low growth; 1: moderate growth; 2: good growth; key to Fluo.: fluorescence of the colonies / Col.: color of the colonies: —: no color/fluorescence
Procedure: as §1

[8] = system: Pseudomonas aeruginosa NCTC 10 662; design: key to Growth: NG: no growth; 0.5: low growth; 1: moderate growth; 2: good growth; key to Fluo.: fluorescence of the colonies / Col.: color of the colonies: —: no color/fluorescence
Procedure: as §1

[9] = system: Salmonella typhimurium NCTC 74; design: key to Growth: NG: no growth; 0.5: low growth; 1: moderate growth; 2: good growth; key to Fluo.: fluorescence of the colonies / Col.: color of the colonies: —: no color/fluorescence
Procedure: as §1

[10] = system: Staphylococcus aureus NCTC 11 939; design: key to Growth: NG: no growth; 0.5: low growth; 1: moderate growth; 2: good growth; key to Fluo.: fluorescence of the colonies / Col.: color of the colonies: —: no color/fluorescence
Procedure: as §1

[11] = system: Staphylococcus aureus NCTC 6 571; design: key to Growth: NG: no growth; 0.5: low growth; 1: moderate growth; 2: good growth; key to Fluo.: fluorescence of the colonies / Col.: color of the colonies: —: no color/fluorescence
Procedure: as §1

[12] = system: Staphylococcus epidermidis NCTC 11 047; design: key to Growth: NG: no growth; 0.5: low growth; 1: moderate growth; 2: good growth; key to Fluo.: fluorescence of the colonies / Col.: color of the colonies: —: no color/fluorescence
Procedure: as §1

[13] = system: Streptococcus pyogenes NCTC 8 306; design: key to Growth: NG: no growth; 0.5: low growth; 1: moderate growth; 2: good growth; key to Fluo.: fluorescence of the colonies / Col.: color of the colonies: —: no color/fluorescence
Procedure: as §1

[14] = system: Yersinia enterocolitica NCTC 11 176; design: key to Growth: NG: no growth; 0.5: low growth; 1: moderate growth; 2: good growth; key to Fluo.: fluorescence of the colonies / Col.: color of the colonies: —: no color/fluorescence
Procedure: as §1

[15] = system: Enterobacter cloacae NCTC 11 936; design: key to Growth: NG: no growth; 0.5: low growth; 1: moderate growth; 2: good growth
Procedure: as §1

[16] = system: Escherichia coli NCTC 10 418; design: key to Growth: NG: no growth; 0.5: low growth; 1: moderate growth; 2: good growth
Procedure: as §1

[17] = system: Serratia marcescens NCTC 10 211; design: key to Growth: NG: no growth; 0.5: low growth; 1: moderate growth; 2: good growth
Procedure: as §1

## C[n+]1ccc(C=Cc2ccc([N+](=O)[O-])cc2)c2ccccc21.[I-] [4NSMQ^+I, 4-(4′-nitrostyryl)-N-methylquinolinium iodide]
[1]
  Growth: NG
[1]; UV lamp at 365 nm
  Fluo.: fluorescence of the colonies: —
[1]; examined visually
  Col.: color of the colonies: —
[2]
  Growth: NG
[2]; UV lamp at 365 nm
  Fluo.: fluorescence of the colonies: —
[2]; examined visually
  Col.: color of the colonies: —
[3]
  Growth: 0.5
[3]; UV lamp at 365 nm
  Fluo.: fluorescence of the colonies: —
[3]; examined visually
  Col.: color of the colonies: —
[4]
  Growth: 1
[4]; UV lamp at 365 nm
  Fluo.: fluorescence of the colonies: —
[4]; examined visually
  Col.: color of the colonies: Rust
[5]
  Growth: 1
[5]; UV lamp at 365 nm
  Fluo.: fluorescence of the colonies: —
[5]; examined visually
  Col.: color of the colonies: Rust
[6]
  Growth: 1
[6]; UV lamp at 365 nm
  Fluo.: fluorescence of the colonies: —
[6]; examined visually
  Col.: color of the colonies: Rust
[7]
  Growth: 2
[7]; UV lamp at 365 nm
  Fluo.: fluorescence of the colonies: —
[7]; examined visually
  Col.: color of the colonies: Rust e
[8]
  Growth: 2
[8]; UV lamp at 365 nm
  Fluo.: fluorescence of the colonies: —
[9]
  Growth: 1
[9]; UV lamp at 365 nm
  Fluo.: fluorescence of the colonies: —
[10]
  Growth: NG
[10]; UV lamp at 365 nm
  Fluo.: fluorescence of the colonies: —
[10]; examined visually
  Col.: color of the colonies: —
[11]
  Growth: NG
[11]; UV lamp at 365 nm
  Fluo.: fluorescence of the colonies: —
[11]; examined visually
  Col.: color of the colonies: —
[12]
  Growth: 1
[12]; UV lamp at 365 nm
  Fluo.: fluorescence of the colonies: —
[12]; examined visually
  Col.: color of the colonies: —
[13]
  Growth: NG
[13]; UV lamp at 365 nm
  Fluo.: fluorescence of the colonies: —
[13]; examined visually
  Col.: color of the colonies: —
[14]
  Growth: 1
[14]; UV lamp at 365 nm
  Fluo.: fluorescence of the colonies: —
[14]; examined visually
  Col.: color of the colonies: Rust
[15]
  Growth: 2
[15]; examined visually
  Col.: color of the colonies: Rust
[16]
  Growth: 2
[17]
  Growth: 2

Reference: patent US8592175B2, “Nitroreductase enzymatic substrates” (bioMérieux, S.A., priority 2009, dated 2013)
